Data as given in US10052306B2 (LUC THERAPEUTICS, INC., priority 2013, dated 2018).
Like-named read-outs stand apart in the source and are kept apart here.

Legend:
NR1/NR2B [1] = molecular target: NR1/NR2B (Homo sapiens (Human), UniProt Q13224); assay: Cell assay: FDSS Ca2+ influx inhibition in HEK293 cells expressing NR1/NR2B; conditions: read-out: NR2B NAM IC50;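 further: Fluo-8 Ca2+ signal read on Hamamatsu FDSS 6000 after glutamate, glycine and Ca2+ challenge following 10 min compound preincubation, end/baseline fluorescence ratio compared with MK801 control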
NR1/NR2B [2] = molecular target: NR1/NR2B (Homo sapiens (Human), UniProt Q05586+Q13224); assay: as above; conditions: Binned Activity, HEK293 cells expressing NR1/NR2B, Ca2+ influx; binned NR2B NAM IC50
[3] = HEK293 cells expressing NR1/NR2B, Ca2+ influx

Sequence of NR1/NR2B (Homo sapiens (Human), UniProt Q05586+Q13224) (Q13224 27-1484, other chains not shown): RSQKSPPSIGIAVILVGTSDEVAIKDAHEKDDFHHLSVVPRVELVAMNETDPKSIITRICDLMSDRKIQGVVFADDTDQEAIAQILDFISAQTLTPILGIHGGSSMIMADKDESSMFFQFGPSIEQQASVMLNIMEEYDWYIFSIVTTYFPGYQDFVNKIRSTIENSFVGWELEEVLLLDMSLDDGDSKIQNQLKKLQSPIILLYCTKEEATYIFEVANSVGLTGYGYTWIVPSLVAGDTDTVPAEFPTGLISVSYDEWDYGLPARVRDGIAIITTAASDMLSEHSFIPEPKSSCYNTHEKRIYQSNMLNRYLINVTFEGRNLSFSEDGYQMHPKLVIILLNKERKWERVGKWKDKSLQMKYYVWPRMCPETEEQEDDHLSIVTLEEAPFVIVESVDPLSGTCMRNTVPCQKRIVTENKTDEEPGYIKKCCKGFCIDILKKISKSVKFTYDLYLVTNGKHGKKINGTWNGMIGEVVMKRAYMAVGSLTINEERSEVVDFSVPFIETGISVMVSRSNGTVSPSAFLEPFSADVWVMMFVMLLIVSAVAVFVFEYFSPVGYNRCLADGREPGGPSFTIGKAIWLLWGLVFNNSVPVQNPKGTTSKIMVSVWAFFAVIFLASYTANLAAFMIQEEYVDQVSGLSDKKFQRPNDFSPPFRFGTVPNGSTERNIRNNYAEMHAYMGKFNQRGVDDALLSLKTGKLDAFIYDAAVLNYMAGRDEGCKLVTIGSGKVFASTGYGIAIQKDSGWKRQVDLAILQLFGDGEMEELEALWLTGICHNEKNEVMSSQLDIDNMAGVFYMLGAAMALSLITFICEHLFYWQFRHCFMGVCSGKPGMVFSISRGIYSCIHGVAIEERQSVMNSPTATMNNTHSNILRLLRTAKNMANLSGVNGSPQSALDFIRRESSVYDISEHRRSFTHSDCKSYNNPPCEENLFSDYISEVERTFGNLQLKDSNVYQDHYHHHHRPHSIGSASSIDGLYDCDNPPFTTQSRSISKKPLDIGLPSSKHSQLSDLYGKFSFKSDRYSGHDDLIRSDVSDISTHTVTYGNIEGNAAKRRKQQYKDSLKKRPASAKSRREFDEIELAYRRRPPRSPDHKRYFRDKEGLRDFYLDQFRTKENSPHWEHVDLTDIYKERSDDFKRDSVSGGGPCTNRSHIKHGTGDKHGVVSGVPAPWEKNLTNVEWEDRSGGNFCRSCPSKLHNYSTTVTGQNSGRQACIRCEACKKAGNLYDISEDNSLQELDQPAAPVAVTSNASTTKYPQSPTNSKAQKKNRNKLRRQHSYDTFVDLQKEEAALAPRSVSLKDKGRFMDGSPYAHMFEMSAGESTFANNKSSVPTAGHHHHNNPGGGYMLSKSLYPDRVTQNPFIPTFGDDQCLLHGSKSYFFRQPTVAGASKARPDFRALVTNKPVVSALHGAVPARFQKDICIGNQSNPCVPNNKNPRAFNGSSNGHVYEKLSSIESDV
Sequence of NR1/NR2B (Homo sapiens (Human), UniProt Q13224) (Q13224 27-1484, other chains not shown): as above

Compound	IC50 (NR1/NR2B [1]; [3]) [µM]	IC50 (NR1/NR2B [2]) [µM]	IC50 (NR1/NR2B [1]) [µM]
O=C(CN1C[C@@H]2C[C@@](O)(Cc3ccccc3)C[C@@H]2C1)c1ccc(-c2ccc(F)cc2)cc1 [Example 262, 2-((3aR,5r,6aS)-5-benzyl-5-hydroxyhexahydrocyclo-penta[c]pyrrol-2(1H)-yl)-1-(4′-fluoro-[1,1′-biphenyl]-4-yl)ethanone]	10	> 10	–
COc1cccc(NC(=O)N2C[C@@H]3C[C@@](O)(c4cccc(OC)c4)C[C@@H]3C2)c1 [Example 18, 5-hydroxy-N,5-bis(3-methoxyphenyl)-octahydrocyclopenta[c] pyrrole-2-carboxamide]	10	> 10	–
CC(C)(O)c1ccc(C(=O)CN2C[C@@H]3C[C@@](O)(Cc4ccccc4)C[C@@H]3C2)cc1 [Example 138, 2-((3aR,5r,6aS)-5-benzyl-5-hydroxyhexahydrocyclo-penta[c]pyrrol-2(1H)-yl)-1-(4-(2-hydroxypropan-2-yl)phenyl)ethanone]	10	> 10	–
Cc1ccc(NC(=O)N2C[C@@H]3C[C@@](O)(c4ccccc4)C[C@@H]3C2)cc1 [Example 3, 5-hydroxy-N-(4-methylphenyl)-5-phenyl-octahydrocyclopenta[c] pyrrole-2-carboxamide]	–	> 10	10
COc1ccc(C(=O)CN2C[C@@H]3C[C@@](O)(Cc4ccccc4)C[C@@H]3C2)cc1 [Example 132, 2-((3aR,5r,6aS)-5-benzyl-5-hydroxyhexahydrocyclo-penta[c]pyrrol-2(1H)-yl)-1-(4-methoxyphenyl)ethanone]	10	> 10	–
O=C(Nc1ccc(F)cc1)N1C[C@@H]2C[C@@](O)(c3ccccc3)C[C@@H]2C1 [Example 6]	10	> 10	–
O=C(COc1ccc(C(=O)CN2C[C@@H]3C[C@@](O)(Cc4ccc(F)cc4)C[C@@H]3C2)cc1F)c1ccc(O)c(F)c1 [Example 173, 2-(2-fluoro-4-(2-((3aR,5r,6aS)-5-(4-fluorobenzyl)-5-hydroxyhexahydrocyclo-penta[c]pyrrol-2(1H)-yl)acetyl)phenoxy)-1-(3-fluoro-4-hydroxyphenyl)ethanone]	10	> 10	–
COc1ccccc1CNC(=O)N1C[C@H]2C[C@@H](c3ccccc3)C[C@H]2C1 [Example 112, N-[(2-methoxyphenyl)methyl]-5-phenyl-octahydrocyclopenta[c] pyrrole-2-carboxamide]	10	> 10	–
Cc1cccc(N2C[C@@H]3C[C@@](O)(c4ccccc4C)C[C@@H]3C2)n1 [Example 86, 5-(2-methylphenyl)-2-(6-methylpyridin-2-yl)-octahydrocyclopenta[c] pyrrol-5-ol]	10	> 10	–
COc1cccc([C@]2(O)C[C@H]3CN(CC(=O)c4ccccc4)C[C@H]3C2)c1 [Example 59, 2-[5-hydroxy-5-(3-methoxyphenyl)-octahydrocyclopenta[c]pyrrol-2-yl]-1-phenylethan-1-one]	–	> 10	10
O=C(CN1C[C@@H]2C[C@@](O)(CC3CC3)C[C@@H]2C1)c1ccc(O)cn1 [Example 207, 2-((3aR,5r,6aS)-5-(cyclopropylmethyl)-5-hydroxyhexahydrocyclo-penta[c]pyrrol-2(1H)-yl)-1-(5-hydroxypyridin-2-yl)ethanone]	10	> 10	–
CC(C)(C)c1ccc([C@]2(O)C[C@H]3CN(C(=O)Nc4cccc(C#N)c4)C[C@H]3C2)cc1 [Example 52]	10	> 10	–
COc1ccc(C(=O)CN2C[C@@H]3C[C@@](O)(Cc4ccccc4)C[C@@H]3C2)cn1 [Example 161, 2-((3aR,5r,6aS)-5-benzyl-5-hydroxyhexahydrocyclo-penta[c]pyrrol-2(1H)-yl)-1-(6-methoxypyridin-3-yl)ethanone]	10	> 10	–
COC(=O)c1ccc(NC(=O)N2C[C@@H]3C[C@@](O)(c4ccccc4C)C[C@@H]3C2)cc1 [Example 22, Methyl 4-(5-hydroxy-5-(o-tolyl)octahydrocyclopenta [c]pyrrole-2-carboxamido)benzoate]	10	> 10	–
O=C(CN1C[C@@H]2C[C@@](O)(Cc3c(F)cccc3F)C[C@@H]2C1)c1ccc(O)cn1 [Example 237, 2-[(3aR,5R,6aS)-5-[(2,6-difluorophenyl)methyl]-5-hydroxy-octahydrocyclopenta[c]pyrrol-2-yl]-1-(5-hydroxypyridin-2-yl)ethan-1-one]	1.91	1 to 10	–
N#Cc1cccc(NC(=O)N2C[C@H]3C[C@@H](c4ccccc4)C[C@H]3C2)c1 [Example 107, N-(3-cyanophenyl)-5-phenyl-octahydrocyclopenta[c] pyrrole-2-carboxamide]	10	> 10	–

Compound	IC50 (NR1/NR2B [1]; [3]) [µM]	IC50 (NR1/NR2B [2]) [µM]	IC50 (NR1/NR2B [1]) [µM]
Cc1cccc(N2C[C@@H]3C[C@@](O)(c4ccc(F)cc4)C[C@@H]3C2)n1 [Example 87, 5-(4-fluorophenyl)-2-(6-methylpyridin-2-yl)-octahydrocyclopenta[c] pyrrol-5-ol]	10	> 10	–
CO[C@@]1(Cc2ccccc2)C[C@H]2CN(CC(=O)c3ccc(O)c(F)c3)C[C@H]2C1 [Example 170, 2-((3aR,5r,6aS)-5-benzyl-5-methoxyhexahydrocyclo-penta[c]pyrrol-2(1H)-yl)-1-(3-fluoro-4-hydroxyphenyl)ethanone]	0.132	0.1 to 1	–
O=C(CN1C[C@@H]2C[C@@](O)(Cc3ccccc3)C[C@@H]2C1)c1ccc(-c2ccccn2)cc1 [Example 266, 2-((3aR,5r,6aS)-5-benzyl-5-hydroxyhexahydrocyclo-prenta[c]pyrrol-2(1H)-yl)-1-(4-(pyridin-2-yl)phenyl)ethanone]	10	> 10	–
O=C(CN1C[C@@H]2C[C@@](O)(Cc3ccccc3F)C[C@@H]2C1)c1ccc(O)cc1 [Example 225, 2-((3aR,5r,6aS)-5-(2-fluorobenzyl)-5-hydroxyhexahydrocyclo-penta[c]pyrrol-2(1H)-yl)-1-(4-hydroxyphenyl)ethanone]	0.0273	< 0.1	–
CO[C@@]1(Cc2ccccc2)C[C@H]2CN(CC(=O)c3ccc(O)cc3)C[C@H]2C1 [Example 174, 2-((3aR,5r,6aS)-5-benzyl-5-methoxyhexahydrocyclo-penta[c]pyrrol-2(1H)-yl)-1-(4-hydroxyphenyl)ethanone]	0.0572	< 0.1	–
O=C(Nc1ccccc1)N1C[C@H]2C[C@@H](c3ccccc3)C[C@H]2C1 [Example 102, N,5-diphenyl-octahydrocyclopenta[c] pyrrole-2-carboxamide]	10	> 10	–
O=C(CN1C[C@@H]2C[C@@](O)(Cc3ccccc3)C[C@@H]2C1)c1cc(F)c(O)c(F)c1 [Example 159, 2-((3aR,5r,6aS)-5-benzyl-5-hydroxyhexahydrocyclo-penta[c]pyrrol-2(1H)-yl)-1-(3,5-difluoro-4-hydroxyphenyl)ethanone]	11.6	> 10	–
CC(C)(C)c1ccc([C@]2(O)C[C@H]3CN(C(=O)Nc4cccc(C(F)(F)F)c4)C[C@H]3C2)cc1 [Example 55, 5-(4-tert-butylphenyl)-5-hydroxy-N-[3-(trifluoromethyl)phenyl]-octahydrocyclopenta[c] pyrrole-2-carboxamide]	10	> 10	–
O=C(Cc1ccc(O)cc1)CN1C[C@@H]2C[C@@](O)(Cc3ccccc3)C[C@@H]2C1 [Example 145, 1-((3aR,5r,6aS)-5-benzyl-5-hydroxyhexahydrocyclo-penta[c]pyrrol-2(1H)-yl)-3-(4-hydroxyphenyl)propan-2-one]	10	> 10	–
O=C(CN1C[C@@H]2C[C@@](O)(c3cccnc3F)C[C@@H]2C1)c1ccc(O)cn1 [Example 244, 2-((3aR,6aS)-5-(2-fluoropyridin-3-yl)-5-hydroxyhexahydrocyclo-penta[c]pyrrol-2(1H)-yl)-1-(5-hydroxypyridin-2-yl)ethanone]	10	> 10	–
O=C(CN1C[C@@H]2C[C@@](F)(Cc3ccccc3)C[C@@H]2C1)c1ccc(O)cc1 [Example 312]	0.093	< 0.1	–
O=C(CN1C[C@@H]2C[C@@](O)(Cc3cccc(F)c3F)C[C@@H]2C1)c1ccc(O)cc1 [Example 249, 2-((3aR,5r,6aS)-5-(2,3-difluorobenzyl)-5-hydroxyhexahydrocyclo-penta[c]pyrrol-2(1H)-yl)-1-(4-hydroxyphenyl)ethanone]	0.11	0.1 to 1	–
O=C(CN1C[C@@H]2C[C@@](O)(Cc3ccncc3)C[C@@H]2C1)c1ccc(O)cc1 [Example 226, 2-((3aR,5r,6aS)-5-hydroxy-5-(pyridin-4-ylmethyl)hexahydrocyclo-penta[c]pyrrol-2(1H)-yl)-1-(4-hydroxyphenyl)ethanone]	3.89	1 to 10	–
O=C(CCN1C[C@@H]2C[C@@](O)(Cc3ccccc3)C[C@@H]2C1)c1ccc(O)cc1 [Example 133, 3-((3aR,5r,6S)-5-benzyl-5-hydroxyhexahydrocyclo-penta[c]pyrrol-2(1H)-yl)-1-(4-hydroxyphenyl)propan-1-one]	7.05	1 to 10	–
O=C(CN1C[C@@H]2C[C@@](O)(Cc3ccccc3)C[C@@H]2C1)c1cccc(-c2ccc(F)cc2)c1 [Example 274, 2-((3aR,5r,6aS)-5-benzyl-5-hydroxyhexahydrocyclo-penta[c]pyrrol-2(1H)-yl)-1-(4′-fluoro-[1,1′-biphenyl]-3-yl)ethanone]	10	> 10	–
